Laboratory results reported in ChEMBL document CHEMBL3885881, “DrugMatrix”.

Species on record: Rattus norvegicus
Type: toxicity, organism-based, Sprague-Dawley
Conditions: in vivo, po, route oral GAVAGE, vehicle 100 % SALINE; for ABSOLUTE EOSINOPHIL / ABSOLUTE LYMPHOCYTE / ABSOLUTE MONOCYTE / ABSOLUTE SEGMENTED NEUTROPHIL / BASOPHIL / EOSINOPHIL / ERYTHROCYTE COUNT / HEMATOCRIT / HEMOGLOBIN / LEUKOCYTE COUNT / LYMPHOCYTE / MEAN CORPUSCULAR HEMOGLOBIN / MEAN CORPUSCULAR HEMOGLOBIN CONCENTRATION / MONOCYTE / NEUTROPHIL / NUCLEATED RED BLOOD CELLS / PLATELET COUNT: tissue Blood; for ALANINE AMINOTRANSFERASE / ALBUMIN / ALKALINE PHOSPHATASE / ASPARTATE AMINOTRANSFERASE / BLOOD UREA NITROGEN / CARBON DIOXIDE / CHLORIDE / CHOLESTEROL / CREATINE PHOSPHOKINASE / CREATININE / GLUCOSE / LACTATE DEHYDROGENASE / LIPASE / PHOSPHORUS / POTASSIUM / SODIUM / TOTAL BILIRUBIN / TOTAL PROTEIN / URIC ACID: tissue Plasma
[1] = 0 mg/kg, 6 h, vehicle control, dose level Control, time 0.25 day
[2] = 0 mg/kg, 24 h, vehicle control, dose level Control, time 1 day
[3] = 700 mg/kg, 6 h, dose level Low, time 0.25 day

Description: DrugMatrix - Regimen: Single

CN(C)C=O [DIMETHYLFORMAMIDE]
ABSOLUTE EOSINOPHIL [1]: 24 CELLS/uL
ABSOLUTE LYMPHOCYTE [1]: 11958.17 CELLS/uL
ABSOLUTE MONOCYTE [1]: 398.83 CELLS/uL
ABSOLUTE SEGMENTED NEUTROPHIL [1]: 1252.33 CELLS/uL
BASOPHIL [1]: 0%
EOSINOPHIL [1]: 0.17%
ERYTHROCYTE COUNT [1]: 5.37 x10E6/uL
HEMATOCRIT [1]: 35.6%
HEMOGLOBIN [1]: 13.05 G/DL
LEUKOCYTE COUNT [1]: 13.63 x10E3/uL
LYMPHOCYTE [1]: 87.67%
MEAN CORPUSCULAR HEMOGLOBIN [1]: 24.28 pg
MEAN CORPUSCULAR HEMOGLOBIN CONCENTRATION [1]: 36.67 G/DL
MONOCYTE [1]: 2.83%
NEUTROPHIL [1]: 9.33%
NUCLEATED RED BLOOD CELLS [1]: 0 /100WBC
PLATELET COUNT [1]: 947.83 x10E3/uL
ALANINE AMINOTRANSFERASE [1]: 51 u/L
ALBUMIN [1]: 4.02 G/DL
ALKALINE PHOSPHATASE [1]: 312.33 u/L
ASPARTATE AMINOTRANSFERASE [1]: 98.17 u/L
BLOOD UREA NITROGEN [1]: 9.5 mg/dL
CARBON DIOXIDE [1]: 18.83 mmol/L
CHLORIDE [1]: 103.5 MEQ/L
CHOLESTEROL [1]: 69.5 mg/dL
CREATINE PHOSPHOKINASE [1]: 580.17 u/L
CREATININE [1]: 0.53 mg/dL
GLUCOSE [1]: 175.67 mg/dL
LACTATE DEHYDROGENASE [1]: 295.5 u/L
LIPASE [1]: 8.17 u/L
PHOSPHORUS [1]: 14.12 mg/dL
POTASSIUM [1]: 5.77 MEQ/L
SODIUM [1]: 144.13 MEQ/L
TOTAL BILIRUBIN [1]: 0.12 mg/dL
TOTAL PROTEIN [1]: 4.87 G/DL
URIC ACID [1]: 2.25 mg/dL
ABSOLUTE EOSINOPHIL [2]: 0 CELLS/uL
ABSOLUTE LYMPHOCYTE [2]: 12232.83 CELLS/uL
ABSOLUTE SEGMENTED NEUTROPHIL [2]: 780.17 CELLS/uL
BASOPHIL [2]: 0%
EOSINOPHIL [2]: 0%
ERYTHROCYTE COUNT [2]: 5.18 x10E6/uL
HEMATOCRIT [2]: 33.48%
HEMOGLOBIN [2]: 13.22 G/DL
LEUKOCYTE COUNT [2]: 13.03 x10E3/uL
LYMPHOCYTE [2]: 93.33%
MEAN CORPUSCULAR HEMOGLOBIN [2]: 25.57 pg
MEAN CORPUSCULAR HEMOGLOBIN CONCENTRATION [2]: 39.52 G/DL
MONOCYTE [2]: 0.17%
NEUTROPHIL [2]: 6.5%
NUCLEATED RED BLOOD CELLS [2]: 0 /100WBC
PLATELET COUNT [2]: 931.5 x10E3/uL
ALANINE AMINOTRANSFERASE [2]: 60.83 u/L
ALBUMIN [2]: 4.18 G/DL
ALKALINE PHOSPHATASE [2]: 283.33 u/L
ASPARTATE AMINOTRANSFERASE [2]: 80.5 u/L
BLOOD UREA NITROGEN [2]: 11.83 mg/dL
CARBON DIOXIDE [2]: 35.33 mmol/L
CHLORIDE [2]: 98.5 MEQ/L
CHOLESTEROL [2]: 80 mg/dL
CREATINE PHOSPHOKINASE [2]: 181.83 u/L
CREATININE [2]: 0.2 mg/dL
GLUCOSE [2]: 142.67 mg/dL
LACTATE DEHYDROGENASE [2]: 65.5 u/L
LIPASE [2]: 9.83 u/L
PHOSPHORUS [2]: 9.82 mg/dL
POTASSIUM [2]: 5.69 MEQ/L
SODIUM [2]: 143.35 MEQ/L
TOTAL BILIRUBIN [2]: 0.15 mg/dL
TOTAL PROTEIN [2]: 6.2 G/DL
URIC ACID [2]: 0.42 mg/dL
ABSOLUTE EOSINOPHIL [3]: 9.5 CELLS/uL
ABSOLUTE LYMPHOCYTE [3]: 11164.33 CELLS/uL
ABSOLUTE MONOCYTE [3]: 139.17 CELLS/uL
ABSOLUTE SEGMENTED NEUTROPHIL [3]: 1270.33 CELLS/uL
BASOPHIL [3]: 0%
EOSINOPHIL [3]: 0.17%
ERYTHROCYTE COUNT [3]: 5.55 x10E6/uL
HEMATOCRIT [3]: 36.67%
HEMOGLOBIN [3]: 12.92 G/DL
LEUKOCYTE COUNT [3]: 12.58 x10E3/uL
LYMPHOCYTE [3]: 88.83%
MEAN CORPUSCULAR HEMOGLOBIN [3]: 23.45 pg
MEAN CORPUSCULAR HEMOGLOBIN CONCENTRATION [3]: 35.43 G/DL
MONOCYTE [3]: 1%
NEUTROPHIL [3]: 10%
NUCLEATED RED BLOOD CELLS [3]: 0 /100WBC
PLATELET COUNT [3]: 1098.83 x10E3/uL
ALANINE AMINOTRANSFERASE [3]: 66.17 u/L
ALBUMIN [3]: 4.17 G/DL
ALKALINE PHOSPHATASE [3]: 259.5 u/L
ASPARTATE AMINOTRANSFERASE [3]: 125.5 u/L
BLOOD UREA NITROGEN [3]: 9.33 mg/dL
CARBON DIOXIDE [3]: 17.83 mmol/L
CHLORIDE [3]: 103 MEQ/L
CHOLESTEROL [3]: 67.67 mg/dL
CREATINE PHOSPHOKINASE [3]: 882.33 u/L
CREATININE [3]: 0.3 mg/dL
GLUCOSE [3]: 174.5 mg/dL
LACTATE DEHYDROGENASE [3]: 297.17 u/L
LIPASE [3]: 9.83 u/L
PHOSPHORUS [3]: 15.98 mg/dL
POTASSIUM [3]: 6.92 MEQ/L
SODIUM [3]: 144.05 MEQ/L
TOTAL BILIRUBIN [3]: 0.13 mg/dL
TOTAL PROTEIN [3]: 5.7 G/DL
URIC ACID [3]: 3.3 mg/dL
